Columns and labels:
[1] = tested on: Foxtail, Green, Setaria viridis; experiment: Postemergence herbicidal evaluation, SETVI; assay type: in vivo, (L.) Beau; conditions: 0.0630 kg/ha
Outline: (§1)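 Roughly two-week-old seedlings sprayed with compound dispersed in 50/50 acetone/water plus 0.5% TWEEN 20, delivering about 0.0157 to 0.500 kg active per hectare through a nozzle at 40 psi. Kept in greenhouse; visually rated 4–5 weeks after treatment on a 0–9 scale (stand, vigor, malformation, size, chlorosis) versus control, replicate tests averaged.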

[2] = tested on: Wheat, Winter, cv Riband, Triticum aestivum; experiment: Preemergence herbicidal evaluation, TRZAWR; assay type: in vivo; conditions: 0.2500 kg/ha
Excerpt: (§2) Results of herbicide evaluation are expressed on a rating scale (0-9). The scale is based upon a visual observation of plant stand, vigor, malformation, size, chlorosis and overall plant appearance as compared with a control.
(§3) The preemergence herbicidal activity of the test compounds of the present invention is exemplified by the following tests in which the seeds of a variety of monocotyledonous and dicotyledonous plants are separately mixed with potting soil and planted on top of approximately one inch of soil in separate pint cups. After planting, the cups are sprayed with the selected aqueous acetone solution containing test compound in sufficient quantity to provide the equivalent of about 0.0156 to 0.500 kg per hectare of test compound per cup. The treated cups are then placed on greenhouse benches, watered and cared for in accordance with conventional greenhouse procedures. From four to five weeks after treatment, the tests are terminated and each cup is examined and rated according to the rating system provided in Example 185.
(§4) The compounds evaluated are reported by compound number given in Example 185.

[3] = tested on: Rice, Tebonnet, Oryza sativa; experiment: Preemergence herbicidal evaluation, ORYSAT; assay type: in vivo, (L.) Tebonnet; conditions: 0.2500 kg/ha
Excerpt: as §2, §3, §4

[4] = tested on: Sicklepod, Cassia obtusifolia; experiment: Preemergence herbicidal evaluation, CASOB; assay type: in vivo, L.; conditions: 0.2500 kg/ha
Excerpt: as §2, §3, §4

[5] = tested on: Rice, Tebonnet, Oryza sativa; experiment: Postemergence herbicidal evaluation, ORYSAT; assay type: in vivo, (L.) Tebonnet; conditions: 0.0630 kg/ha
Outline: as §1

[6] = tested on: Velvetleaf, Abutilon theophrasti; experiment: Postemergence herbicidal evaluation, ABUTH; assay type: in vivo, Medic.; conditions: 0.0630 kg/ha
Outline: as §1

[7] = tested on: Morningglory, Ivyleaf, Ipomoea hederacea; experiment: Postemergence herbicidal evaluation, IPOHE; assay type: in vivo, (L.) Jacq.; conditions: 0.0630 kg/ha
Outline: as §1

[8] = tested on: Barnyardgrass, Echinochloa crus-galli; experiment: Preemergence herbicidal evaluation, ECHCG; assay type: in vivo, (L.) Beau; conditions: 0.2500 kg/ha
Excerpt: as §2, §3, §4

[9] = tested on: Lambsquarters, Common, Chenopodium album; experiment: Postemergence herbicidal evaluation, CHEAL; assay type: in vivo, L.; conditions: 0.0630 kg/ha
Outline: as §1

[10] = tested on: Lambsquarters, Common, Chenopodium album; experiment: Preemergence herbicidal evaluation, CHEAL; assay type: in vivo, L.; conditions: 0.2500 kg/ha
Excerpt: as §2, §3, §4

[11] = tested on: Corn, Field, Zea mays; experiment: Postemergence herbicidal evaluation, ZEAMX; assay type: in vivo, L.; conditions: 0.0630 kg/ha
Outline: as §1

[12] = tested on: Ragweed, Common, Ambrosia artemisifolia; experiment: Postemergence herbicidal evaluation, AMBEL; assay type: in vivo, L.; conditions: 0.0630 kg/ha
Outline: as §1

[13] = tested on: Velvetleaf, Abutilon theophrasti; experiment: Preemergence herbicidal evaluation, ABUTH; assay type: in vivo, Medic.; conditions: 0.2500 kg/ha
Excerpt: as §2, §3, §4

[14] = tested on: Galium, Galium aparine; experiment: Postemergence herbicidal evaluation, GALAP; assay type: in vivo; conditions: 0.0630 kg/ha
Outline: as §1

[15] = tested on: Barnyardgrass, Echinochloa crus-galli; experiment: Postemergence herbicidal evaluation, ECHCG; assay type: in vivo, (L.) Beau; conditions: 0.0630 kg/ha
Outline: as §1

[16] = tested on: Ragweed, Common, Ambrosia artemisifolia; experiment: Preemergence herbicidal evaluation, AMBEL; assay type: in vivo, L.; conditions: 0.2500 kg/ha
Excerpt: as §2, §3, §4

[17] = tested on: Morningglory, Ivyleaf, Ipomoea hederacea; experiment: Preemergence herbicidal evaluation, IPOHE; assay type: in vivo, (L.) Jacq.; conditions: 0.2500 kg/ha
Excerpt: as §2, §3, §4

[18] = tested on: Corn, Field, Zea mays; experiment: Preemergence herbicidal evaluation, ZEAMX; assay type: in vivo, L.; conditions: 0.2500 kg/ha
Excerpt: as §2, §3, §4

[19] = tested on: Foxtail, Green, Setaria viridis; experiment: Preemergence herbicidal evaluation, SETVI; assay type: in vivo, (L.) Beau; conditions: 0.2500 kg/ha
Excerpt: as §2, §3, §4

[20] = tested on: Wheat, Winter, cv Riband, Triticum aestivum; experiment: Postemergence herbicidal evaluation, TRZAWR; assay type: in vivo; conditions: 0.0630 kg/ha
Outline: as §1

[21] = tested on: Galium, Galium aparine; experiment: Preemergence herbicidal evaluation, GALAP; assay type: in vivo; conditions: 0.2500 kg/ha
Excerpt: as §2, §3, §4

[22] = tested on: Soybean, Williams, Glycine max; experiment: Preemergence herbicidal evaluation, GLXMAW; assay type: in vivo, (L.) Merr. cv Williams; conditions: 0.2500 kg/ha
Excerpt: as §2, §3, §4

[23] = tested on: Soybean, Williams, Glycine max; experiment: Postemergence herbicidal evaluation, GLXMAW; assay type: in vivo, (L.) Merr. cv Williams; conditions: 0.0630 kg/ha
Outline: as §1

[24] = tested on: Sicklepod, Cassia obtusifolia; experiment: Postemergence herbicidal evaluation, CASOB; assay type: in vivo, L.; conditions: 0.0630 kg/ha
Outline: as §1

Compound	herbicide rating (0-9) [1]	herbicide rating (0-9) [2]	herbicide rating (0-9) [3]	herbicide rating (0-9) [4]	herbicide rating (0-9) [5]	herbicide rating (0-9) [6]	herbicide rating (0-9) [7]	herbicide rating (0-9) [8]	herbicide rating (0-9) [9]	herbicide rating (0-9) [10]	herbicide rating (0-9) [11]	herbicide rating (0-9) [12]	herbicide rating (0-9) [13]	herbicide rating (0-9) [14]	herbicide rating (0-9) [15]	herbicide rating (0-9) [16]	herbicide rating (0-9) [17]	herbicide rating (0-9) [18]	herbicide rating (0-9) [19]	herbicide rating (0-9) [20]	other results
COc1c(C)cc(C)cc1-c1nsc2ccc(-n3c(=O)cc(C(F)(F)F)n(C)c3=O)cc12 [Compound 18, 3-[3-(2-Methoxy-3,5-xylyl)-1,2-benzisothiazol-5-yl]-1-methyl-6-(trifluoromethyl)-2,4(1H,3H)-pyrimidinedione]	5.0	0.0	0.0	4.0	2.0	9.0	9.0	5.0	9.0	9.0	5.0	6.0	9.0	5.0	4.0	9.0	4.0	3.0	9.0	2.5	herbicide rating (0-9) [21]: 1.0; herbicide rating (0-9) [22]: 2.0; herbicide rating (0-9) [23]: 4.0
COc1ccc(C)cc1-c1nsc2ccc(-n3c(=O)cc(C)n(C)c3=O)cc12 [Compound 24, 3-[3-(6-Methoxy-m-tolyl)-1,2-benzisothiazol-5-yl]-1,6-dimethyl-2,4(1H,3H)-pyrimidinedione]	0.0	0.0	0.0	4.0	0.5	7.0	4.0	3.0	0.0	9.0	5.0	3.0	9.0	0.0	0.0	5.0	9.0	2.0	5.0	3.0	herbicide rating (0-9) [21]: 3.0; herbicide rating (0-9) [22]: 1.0; herbicide rating (0-9) [23]: 3.0
Cn1c(C(F)(F)F)cc(=O)n(-c2ccc3onc(-c4ccccc4)c3c2)c1=O [Compound 25, 1-Methyl-3-(3-phenyl-1,2-benzisoxazol-5-yl)-6-(trifluoromethyl)-2,4 (1H,3H)-pyrimidinedione]	7.0	7.0	7.0	9.0	3.5	9.0	8.0	9.0	9.0	9.0	4.5	5.0	9.0	5.0	2.0	9.0	9.0	7.0	9.0	3.5	herbicide rating (0-9) [21]: 8.0; herbicide rating (0-9) [22]: 9.0; herbicide rating (0-9) [23]: 7.0
COC(=O)COc1c(C)cc(C)cc1-c1nsc2ccc(-n3c(=O)cc(C(F)(F)F)n(C)c3=O)cc12 [Compound 26, Methyl {{6-{5-[3,6-dihydro-3-methyl-2,6-dioxo-4-(trifluoromethyl)-1(2H)-pyrimidinyl]-1,2-benzisothiazol-3-yl}-2,4-xylyl}oxy}acetate]	9.0	5.0	5.0	9.0	2.0	9.0	9.0	7.0	9.0	9.0	7.0	9.0	9.0	9.0	9.0	9.0	7.0	7.0	9.0	8.0	herbicide rating (0-9) [24]: 6.0; herbicide rating (0-9) [21]: 4.0; herbicide rating (0-9) [22]: 6.0; herbicide rating (0-9) [23]: 7.5
COC(=O)C(C)Oc1c(C)cc(C)cc1-c1nsc2ccc(-n3c(=O)cc(C(F)(F)F)n(C)c3=O)cc12 (stereo not drawn) [Compound 27, Methyl 2-{{6-{5-[3,6-dihydro-3-methyl-2,6-dioxo-4-(trifluoromethyl)-1(2H)-pyrimidinyl]-1,2-benzisothiazol-3-yl}-2,4-xylyl}oxy}propionate]	7.0	5.0	2.0	9.0	4.5	9.0	9.0	7.0	9.0	9.0	7.0	9.0	9.0	9.0	7.0	9.0	6.0	4.0	9.0	8.5	herbicide rating (0-9) [24]: 4.0; herbicide rating (0-9) [21]: 2.0; herbicide rating (0-9) [22]: 9.0; herbicide rating (0-9) [23]: 7.0
COC(=O)C(C)Oc1ccc(C(C)C)cc1-c1nsc2ccc(-n3c(=O)cc(C(F)(F)F)n(C)c3=O)cc12 (stereo not drawn) [Compound 30, Methyl 2-{2-{5-[3,6-dihydro-3-methyl-4-(trifluoromethyl)-2,6-dioxo-1(2H)-pyrimidinyl]-1,2-benzisothiazol-3-yl}-4-isopropylphenoxy}propionate]	9.0	7.0	6.0	9.0	7.5	9.0	9.0	7.0	9.0	9.0	9.0	9.0	9.0	5.0	9.0	9.0	9.0	7.0	9.0	7.5	herbicide rating (0-9) [24]: 9.0; herbicide rating (0-9) [21]: 7.0; herbicide rating (0-9) [22]: 6.0; herbicide rating (0-9) [23]: 7.0

Source: patent US6156700A, “3-(1,2-Benzisothiazol- and isoxazol-5-yl)-2,4(1H,3H)-pyrimidinedione or thione and 3-(1,2-benzisothiazol- and isoxazol-5-yl)-4(3H)-pyrimidinone or thione herbicidal agents” (American Cyanmid Company, priority 1998, dated 2000)
